Measured values reported in ChEMBL document CHEMBL3994622, “Design and synthesis of new RAF kinase-inhibiting antiproliferative quinoline derivatives. Part 2: Diarylurea derivatives” (Eur J Med Chem, 2017).

System: HCT-116
Test: Growth inhibition of human HCT116 cells assessed as cell growth at 10 uM incubated for 48 hrs by sulforhodamine B assay relative to control
Assay type: functional
Settings: HCT-116, 48 h, read-out: Activity

SMILES | growth at 10 µM [%]
COc1cc2cc(Oc3ccc(NC(=O)Nc4ccc(C(F)(F)F)cc4)cc3)c(C)nc2cc1OC | 47.2

System: NCI-H522
Test: Growth inhibition of human NCI-H522 cells assessed as cell growth at 10 uM incubated for 48 hrs by sulforhodamine B assay relative to control
Assay type: functional
Settings: NCI-H522, 48 h, read-out: Activity

SMILES | growth at 10 µM [%]
COc1cc2cc(Oc3ccc(NC(=O)Nc4ccc(C(F)(F)F)cc4)cc3)c(C)nc2cc1OC | 63.2

System: DU-145
Test: Growth inhibition of human DU145 cells assessed as cell growth at 10 uM incubated for 48 hrs by sulforhodamine B assay relative to control
Assay type: functional
Settings: DU-145, 48 h, read-out: Activity

SMILES | growth at 10 µM [%]
COc1cc2cc(Oc3ccc(NC(=O)Nc4ccc(C(F)(F)F)cc4)cc3)c(C)nc2cc1OC | 71.4

System: HCC 2998
Test: Growth inhibition of human HCC2998 cells assessed as cell growth at 10 uM incubated for 48 hrs by sulforhodamine B assay relative to control
Assay type: functional
Settings: HCC 2998, 48 h, read-out: Activity

SMILES | growth at 10 µM [%]
COc1cc2cc(Oc3ccc(NC(=O)Nc4ccc(C(F)(F)F)cc4)cc3)c(C)nc2cc1OC | 94.8

System: RPMI-8226
Test: Growth inhibition of human RPMI8226 cells assessed as cell growth at 10 uM incubated for 48 hrs by sulforhodamine B assay relative to control
Assay type: functional
Settings: RPMI-8226, 48 h, read-out: Activity

SMILES | growth at 10 µM [%]
COc1cc2cc(Oc3ccc(NC(=O)Nc4ccc(C(F)(F)F)cc4)cc3)c(C)nc2cc1OC | 52.7

System: CCRF-CEM
Test: Growth inhibition of human CCRF-CEM cells assessed as cell growth at 10 uM incubated for 48 hrs by sulforhodamine B assay relative to control
Assay type: functional
Settings: read-out: Activity

SMILES | growth at 10 µM [%]
COc1cc2cc(Oc3ccc(NC(=O)Nc4ccc(C(F)(F)F)cc4)cc3)c(C)nc2cc1OC | 68.5

System: SNB-75
Test: Growth inhibition of human SNB75 cells assessed as cell growth at 10 uM incubated for 48 hrs by sulforhodamine B assay relative to control
Assay type: functional
Settings: SNB-75, 48 h, read-out: Activity

SMILES | growth at 10 µM [%]
COc1cc2cc(Oc3ccc(NC(=O)Nc4ccc(C(F)(F)F)cc4)cc3)c(C)nc2cc1OC | 41

System: EKVX
Test: Growth inhibition of human EKVX cells assessed as cell growth at 10 uM incubated for 48 hrs by sulforhodamine B assay relative to control
Assay type: functional
Settings: read-out: Activity

SMILES | growth at 10 µM [%]
COc1cc2cc(Oc3ccc(NC(=O)Nc4ccc(C(F)(F)F)cc4)cc3)c(C)nc2cc1OC | 75.7

System: PC-3
Test: Growth inhibition of human PC3 cells assessed as cell growth at 10 uM incubated for 48 hrs by sulforhodamine B assay relative to control
Assay type: functional
Settings: PC-3, 48 h, read-out: Activity

SMILES | growth at 10 µM [%]
COc1cc2cc(Oc3ccc(NC(=O)Nc4ccc(C(F)(F)F)cc4)cc3)c(C)nc2cc1OC | 48.3

System: MDA-MB-231
Test: Growth inhibition of human MDA-MB-231 cells assessed as cell growth at 10 uM incubated for 48 hrs by sulforhodamine B assay relative to control
Assay type: functional
Settings: MDA-MB-231, 48 h, read-out: Activity

SMILES | growth at 10 µM [%]
COc1cc2cc(Oc3ccc(NC(=O)Nc4ccc(C(F)(F)F)cc4)cc3)c(C)nc2cc1OC | 80.9

System: SK-MEL-28
Test: Growth inhibition of human SK-MEL-28 cells assessed as cell growth at 10 uM incubated for 48 hrs by sulforhodamine B assay relative to control
Assay type: functional
Settings: SK-MEL-28, 48 h, read-out: Activity

SMILES | growth at 10 µM [%]
COc1cc2cc(Oc3ccc(NC(=O)Nc4ccc(C(F)(F)F)cc4)cc3)c(C)nc2cc1OC | 58.4

System: SR
Test: Growth inhibition of human SR cells assessed as cell growth at 10 uM incubated for 48 hrs by sulforhodamine B assay relative to control
Assay type: functional
Settings: read-out: Activity

SMILES | growth at 10 µM [%]
COc1cc2cc(Oc3ccc(NC(=O)Nc4ccc(C(F)(F)F)cc4)cc3)c(C)nc2cc1OC | 59.6

System: HOP-62
Test: Growth inhibition of human HOP62 cells assessed as cell growth at 10 uM incubated for 48 hrs by sulforhodamine B assay relative to control
Assay type: functional
Settings: HOP-62, 48 h, read-out: Activity

SMILES | growth at 10 µM [%]
COc1cc2cc(Oc3ccc(NC(=O)Nc4ccc(C(F)(F)F)cc4)cc3)c(C)nc2cc1OC | 18.8

System: MOLT-4
Test: Growth inhibition of human MOLT4 cells assessed as cell growth at 10 uM incubated for 48 hrs by sulforhodamine B assay relative to control
Assay type: functional
Settings: MOLT-4, 48 h, read-out: Activity

SMILES | growth at 10 µM [%]
COc1cc2cc(Oc3ccc(NC(=O)Nc4ccc(C(F)(F)F)cc4)cc3)c(C)nc2cc1OC | 61.9

System: Hs-578T
Test: Growth inhibition of human Hs 578T cells assessed as cell growth at 10 uM incubated for 48 hrs by sulforhodamine B assay relative to control
Assay type: functional
Settings: read-out: Activity

SMILES | growth at 10 µM [%]
COc1cc2cc(Oc3ccc(NC(=O)Nc4ccc(C(F)(F)F)cc4)cc3)c(C)nc2cc1OC | 70.9

System: BT-549
Test: Growth inhibition of human BT549 cells assessed as cell growth at 10 uM incubated for 48 hrs by sulforhodamine B assay relative to control
Assay type: functional
Settings: BT-549, 48 h, read-out: Activity

SMILES | growth at 10 µM [%]
COc1cc2cc(Oc3ccc(NC(=O)Nc4ccc(C(F)(F)F)cc4)cc3)c(C)nc2cc1OC | 113

System: UACC-257
Test: Growth inhibition of human UACC257 cells assessed as cell growth at 10 uM incubated for 48 hrs by sulforhodamine B assay relative to control
Assay type: functional
Settings: UACC-257, 48 h, read-out: Activity

SMILES | growth at 10 µM [%]
COc1cc2cc(Oc3ccc(NC(=O)Nc4ccc(C(F)(F)F)cc4)cc3)c(C)nc2cc1OC | 66.5

System: OVCAR-8
Test: Growth inhibition of human OVCAR8 cells assessed as cell growth at 10 uM incubated for 48 hrs by sulforhodamine B assay relative to control
Assay type: functional
Settings: OVCAR-8, 48 h, read-out: Activity

SMILES | growth at 10 µM [%]
COc1cc2cc(Oc3ccc(NC(=O)Nc4ccc(C(F)(F)F)cc4)cc3)c(C)nc2cc1OC | 37.8

System: RXF 393
Test: Growth inhibition of human RXF393 cells assessed as cell growth at 10 uM incubated for 48 hrs by sulforhodamine B assay relative to control
Assay type: functional
Settings: RXF 393, 48 h, read-out: Activity

SMILES | growth at 10 µM [%]
COc1cc2cc(Oc3ccc(NC(=O)Nc4ccc(C(F)(F)F)cc4)cc3)c(C)nc2cc1OC | 6.29

System: NCI/ADR-RES
Test: Growth inhibition of human NCI/ADR-RES cells assessed as cell growth at 10 uM incubated for 48 hrs by sulforhodamine B assay relative to control
Assay type: functional
Settings: read-out: Activity

SMILES | growth at 10 µM [%]
COc1cc2cc(Oc3ccc(NC(=O)Nc4ccc(C(F)(F)F)cc4)cc3)c(C)nc2cc1OC | 64.1

System: KM12
Test: Growth inhibition of human KM12 cells assessed as cell growth at 10 uM incubated for 48 hrs by sulforhodamine B assay relative to control
Assay type: functional
Settings: KM12, 48 h, read-out: Activity

SMILES | growth at 10 µM [%]
COc1cc2cc(Oc3ccc(NC(=O)Nc4ccc(C(F)(F)F)cc4)cc3)c(C)nc2cc1OC | 64.4

System: M14
Test: Growth inhibition of human M14 cells assessed as cell growth at 10 uM incubated for 48 hrs by sulforhodamine B assay relative to control
Assay type: functional
Settings: M14, 48 h, read-out: Activity

SMILES | growth at 10 µM [%]
COc1cc2cc(Oc3ccc(NC(=O)Nc4ccc(C(F)(F)F)cc4)cc3)c(C)nc2cc1OC | 95.2

System: SW-620
Test: Growth inhibition of human SW620 cells assessed as cell growth at 10 uM incubated for 48 hrs by sulforhodamine B assay relative to control
Assay type: functional
Settings: SW-620, 48 h, read-out: Activity

SMILES | growth at 10 µM [%]
COc1cc2cc(Oc3ccc(NC(=O)Nc4ccc(C(F)(F)F)cc4)cc3)c(C)nc2cc1OC | 75.3

System: SK-OV-3
Test: Growth inhibition of human SKOV3 cells assessed as cell growth at 10 uM incubated for 48 hrs by sulforhodamine B assay relative to control
Assay type: functional
Settings: SK-OV-3, 48 h, read-out: Activity

SMILES | growth at 10 µM [%]
COc1cc2cc(Oc3ccc(NC(=O)Nc4ccc(C(F)(F)F)cc4)cc3)c(C)nc2cc1OC | 38.8

System: SN12C
Test: Growth inhibition of human SN12C cells assessed as cell growth at 10 uM incubated for 48 hrs by sulforhodamine B assay relative to control
Assay type: functional
Settings: read-out: Activity

SMILES | growth at 10 µM [%]
COc1cc2cc(Oc3ccc(NC(=O)Nc4ccc(C(F)(F)F)cc4)cc3)c(C)nc2cc1OC | 72.2
